The text below walks through data of ChEMBL document CHEMBL3596106, “Structure-activity relationship study of E6 as a novel necroptosis inducer” (Bioorg Med Chem Lett, 2015).

Activity calls are given as the source filed them.

One assay deals with Jurkat. As to the kind of experiment: Induction of necroptosis in human Jurkat T cells incubated for 24 hrs by ATP-based cell viability assay. The assay is classed as functional. The settings on record: Homo sapiens, Jurkat, 24 h; read-out: EC50.
As to `CCSc1ccc(-c2ccc(NCc3ccccc3O)cn2)cc1`, the EC50 is 1920 nM.

In the case of `Oc1ccccc1CNc1ccc(-c2ccccc2)cc1F`, the EC50 is 5350 nM. Regarding `CCCc1ccc(-c2ccc(NCc3ccccc3O)cc2)cc1`, the EC50 was determined as 2390 nM.

As to `Oc1ccccc1CNc1ccc(C2CCCCC2)cc1`, the EC50 is 8800 nM. Turning to `Oc1ccccc1CNc1ccc(-c2ccc(F)cc2)nc1`, the EC50 was found to be 2590 nM. Turning to `Oc1ccccc1CNc1ccc(-c2cccc(F)c2)cc1`, the EC50 stood at 2020 nM. `Cc1cccc(-c2ccc(NCc3ccccc3O)cc2)c1`: the EC50 worked out at 9190 nM. Consider `Oc1ccccc1CNc1ccc(-c2ccccc2F)cc1`, for which the EC50 came out at 2150 nM. `Cc1ccccc1-c1ccc(NCc2ccccc2O)cc1`: the EC50 stood at 5220 nM. The same measure, in the same setting: under `Cc1cc(NCc2ccccc2O)ccc1-c1ccccc1` stands 8610 nM. Still for that read-out and setting: as for `Oc1ccccc1CNc1ccc(-c2ccc(Cl)cc2)cc1`, the figure is 2390 nM. Still for that read-out and setting: as for `Oc1ccccc1CNc1ccc(-c2ccccc2)nc1`, the figure is 840 nM; as for `Oc1ccccc1CNc1ccc(-c2ccccc2)c(F)c1`, 2850 nM; as for `Oc1ccccc1CNc1ccc(-c2ccc(F)cc2)cc1`, 3860 nM. `CCOc1ccc(-c2ccc(NCc3ccccc3O)cc2)cc1`: the EC50 came out at 520 nM.

Turning to `Oc1ccccc1CNc1ccc(-c2cccc(Cl)c2)cc1`, the EC50 was 6200 nM.

For `COc1ccc(-c2ccc(NCc3ccccc3O)cc2)cc1`, the EC50 was determined as 580 nM. The same measure, in the same setting: as for `COc1ccc(-c2ccc(NCc3ccccc3O)cn2)cc1`, the figure is 4760 nM; as for `CCOc1ccc(-c2ccc(NCc3ccccc3O)cc2)cc1F`, 2530 nM; as for `Oc1ccccc1CNc1ccc(-c2ccccc2)cc1`, 1820 nM.

Turning to `CC(C)Oc1ccc(-c2ccc(NCc3ccccc3O)cc2)cc1`, the EC50 is 5940 nM. For `CCSc1ccc(-c2ccc(NCc3ccccc3O)cc2)cc1`, the EC50 stood at 1980 nM. With `Cc1ccc(-c2ccc(NCc3ccccc3O)cc2)cc1`, the EC50 was 3790 nM.

Staying with this assay, now noted: jurkat.
As to `Oc1ccccc1CNc1ccc(N2CCNCC2)cc1`, the EC50 entry is reported as “Not Active”. As for `CN(Cc1ccccc1O)c1ccc(C2CCCCC2)cc1`, the EC50 entry was “Not Active”. As to `COc1cccc(-c2ccc(NCc3ccccc3O)cc2)c1`, the EC50 entry is given as “Not Active”.

As to `Oc1cc(F)ccc1CNc1ccc(C2CCCCC2)cc1`, the EC50 entry is “Not Active”.

As to `COC(=O)c1ccc(-c2ccc(NCc3ccccc3O)cc2)cc1`, the EC50 result is reported as “Not Active”.

`Cc1ccc(-c2ccc(NCc3ccccc3O)cn2)cc1`: the EC50 result is given as “Not Active”.

Consider `CCCOc1ccc(-c2ccc(NCc3ccccc3O)cc2)cc1`, for which the EC50 entry was “Not Active”. Same read-out and setting: as for `Oc1ccccc1CNc1ccc(-c2ccc(C(F)(F)F)cc2)cc1`, the entry is “Not Active”; as for `Oc1cc(I)ccc1CNc1ccc(C2CCCCC2)cc1`, “Not Active”.

As for `Cc1ccc(O)c(CNc2ccc(C3CCCCC3)cc2)c1`, the EC50 result is “Not Active”. Still for that read-out and setting: under `Oc1ccccc1CNc1ccc(-c2ccc(OC(F)(F)F)cc2)cc1` stands “Not Active”; under `Oc1ccccc1CNc1ccc(-c2ccccc2Cl)cc1`, “Not Active”. Still for that read-out and setting: as for `Oc1ccccc1CNc1ccc(-c2ccc(Cl)cc2)nc1`, the entry is “Not Active”; as for `Oc1ccccc1/C=N/c1ccc(C2CCCCC2)cc1`, “Not Active”; as for `Oc1ccccc1CNc1ccc(-c2cccc(OC(F)(F)F)c2)cc1`, “Not Active”. On to `Oc1ccccc1NCc1ccc(C2CCCCC2)cc1`, for which the EC50 entry is listed as “Not Active”.

On to `Oc1ccccc1CCc1ccc(C2CCCCC2)cc1`, for which the EC50 result is reported as “Not Active”. For the compound `CCOc1ccc(-c2ccc(NCc3ccccc3O)cn2)cc1`, the EC50 result was “Not Active”. Regarding `Cc1ccc(CNc2ccc(C3CCCCC3)cc2)c(O)c1`, the EC50 result was “Not Active”.

`O=C(Nc1ccc(C2CCCCC2)cc1)c1ccccc1O`: the EC50 entry is on record as “Not Active”. As for `Oc1ccccc1CNc1ccc(-c2ccc(N3CCOCC3)cc2)nc1`, the EC50 entry is “Not Active”.

In the case of `Cc1cc(-c2ccccc2)ccc1NCc1ccccc1O`, the EC50 entry is recorded as “Not Active”.

Regarding `Oc1ccccc1CNc1ccc(F)cc1`, the EC50 entry is recorded as “Not Active”. Turning to `Oc1ccc(CNc2ccc(C3CCCCC3)cc2)cc1`, the EC50 entry is given as “Not Active”. Regarding `N#Cc1ccccc1-c1ccc(NCc2ccccc2O)cc1`, the 50% effective concentration (EC50) result was “Not Active”. `CC(C)(C)c1ccc(-c2ccc(NCc3ccccc3O)cc2)cc1`: the EC50 entry is given as “Not Active”.

On to `CN1CCN(c2ccc(NCc3ccccc3O)cc2)CC1`, for which the EC50 entry is recorded as “Not Active”. Still for that read-out and setting: under `Oc1ccc(-c2ccc(NCc3ccccc3O)cc2)cc1` stands “Not Active”.

Consider `Oc1ccccc1CNc1ccc(-c2ccc(-c3ccccc3)cc2)cc1`, for which the EC50 entry is given as “Not Active”.

For the compound `CC(Nc1ccc(C2CCCCC2)cc1)c1ccccc1O` (stereo not given), the 50% effective concentration (EC50) result was “Not Active”. For the compound `Oc1ccccc1CNc1ccccc1`, the EC50 result is reported as “Not Active”. In the case of `Cc1cccc(CNc2ccc(C3CCCCC3)cc2)c1O`, the EC50 entry is given as “Not Active”. Same read-out and setting: as for `Oc1cc(-c2ccccc2)ccc1CNc1ccc(C2CCCCC2)cc1`, the entry is “Not Active”. On the same count and under the same terms, as for `Oc1cc(C(F)(F)F)ccc1CNc1ccc(C2CCCCC2)cc1`, the entry is “Not Active”; as for `COc1ccccc1-c1ccc(NCc2ccccc2O)cc1`, “Not Active”; as for `CCOc1cccc(-c2ccc(NCc3ccccc3O)cc2)c1`, “Not Active”. On the same count and under the same terms, as for `COc1ccc(CNc2ccc(C3CCCCC3)cc2)c(O)c1`, the entry is “Not Active”; as for `Oc1ccccc1Nc1ccc(C2CCCCC2)cc1`, “Not Active”. `Oc1cccc(-c2ccc(NCc3ccccc3O)cc2)c1`: the concentration giving a half-maximal response (EC50) entry is “Not Active”.

Regarding `c1ccc(CNc2ccc(C3CCCCC3)cc2)cc1`, the EC50 entry is listed as “Not Active”.

Regarding `Oc1ccccc1CNc1ccc(N2CCCC2)cc1`, the EC50 result is “Not Active”. As to `Oc1ccccc1CCNc1ccc(C2CCCCC2)cc1`, the EC50 result was “Not Active”. Still for that read-out and setting: under `Oc1ccccc1CNc1nc(-c2ccccc2)cs1` stands “Not Active”; under `N#Cc1ccc(-c2ccc(NCc3ccccc3O)cc2)cc1`, “Not Active”.

For `O=[N+]([O-])c1ccc(NCc2ccccc2O)cc1`, the EC50 entry is given as “Not Active”. Still for that read-out and setting: under `Oc1ccccc1CNc1ccc(-c2cccc(OCc3ccccc3)c2)cc1` stands “Not Active”; under `CC(=O)c1ccc(-c2ccc(NCc3ccccc3O)cc2)cc1`, “Not Active”; under `Oc1ccccc1CNc1ccc(N2CCCCC2)cc1`, “Not Active”.

Regarding `COc1ccccc1CNc1ccc(C2CCCCC2)cc1`, the EC50 entry is reported as “Not Active”. Regarding `Oc1ccccc1CNc1cc(-c2ccccc2)no1`, the EC50 result is on record as “Not Active”. Still for that read-out and setting: as for `Oc1ccccc1CNc1ccc(-c2ccccc2)cn1`, the entry is “Not Active”.

A further assay concerns Jurkat. As to the kind of experiment: Induction of necroptosis in human Jurkat T cells incubated for 24 hrs in presence of Nec-8 by ATP-based cell viability assay. The assay is classed as functional.
Details: not given
`Oc1ccccc1CNc1ccc(C2CCCCC2)cc1`: the result was inactive.

In a further assay the test system is Jurkat. Description: Induction of necroptosis in human Jurkat T cells incubated for 24 hrs in presence of caspase inhibitor zVAD.fmk by ATP-based cell viability assay. The assay is classed as functional.
Details: not given
Regarding `Oc1ccccc1CNc1ccc(C2CCCCC2)cc1`, the outcome was Active.

The subject of the next assay is Jurkat. As to the kind of experiment: Induction of necroptosis in human Jurkat T cells incubated for 24 hrs in presence of RIPK1 inhibitor Nec-1 by ATP-based cell viability assay. It is filed as functional.
Details: not given
Regarding `Oc1ccccc1CNc1ccc(C2CCCCC2)cc1`, the result was Active.

The next assay relates to Jurkat (Homo sapiens). As to the kind of experiment: Potency index, ratio of EC50 for E6 to EC50 for test compound for induction of necroptosis in human Jurkat T cells incubated for 24 hrs by ATP-based cell viability assay.
Details: not given
As for `CCOc1ccc(-c2ccc(NCc3ccccc3O)cc2)cc1`, the “Ratio EC50” value was 17.

For the compound `COc1ccc(-c2ccc(NCc3ccccc3O)cc2)cc1`, the “Ratio EC50” value came to 17. Still for that read-out and setting: as for `Oc1ccccc1CNc1ccc(-c2ccccc2)cc1`, the figure is 5.

Usually EC50 stands for the concentration needed to bring the measured effect to its halfway point.
